Series [1] concerns the target T1, mitochondrial benzodiazepine receptor (MBR) (Rattus norvegicus, UniProt P16257).
T1 construct: from tissue; host or cells: kidney of male Wistar rats (crude membrane preparation)
As to the kind of experiment: Binding assay of mitochondrial benzodiazepine receptor (MBR), [3H]4'-chlorodiazepam (Ro5-4864), rat kidney membrane-preparation. The following applies: rat kidney membranes, [3H]4'-chlorodiazepam 0.5 nM, 0° C. for 150 minutes. Here is the method: The binding assay of central-type benzodiazepine receptor (CBR) and the preparation of receptor membrane-preparation were carried out according to the partially modified method of Braestrup, C. et al. [see; Br. J. Psychiatry, 133, 249-260 (1978)] with a minor modification; the binding assay of mitochondrial benzodiazepine receptor (MBR) and the preparation of receptor membrane-preparation were carried out according to the method of Schoemaker, H [see; J. Pharmacol. Exp. Ther., 225, 61-69 (1983)] with a minor modification.
CBR and MBR membrane-preparations were prepared from forebrain (CBR) and kidney (MBR) of male Wistar strain rats according to the following procedure, respectively.
To the forebrain of rat, 20 volumes of ice-cold 0.32 M sucrose solution to wet-weight of the tissue (1:20, wet-weight/vol) was added and homogenized, and then the homogenate was centrifuged at 900×g for 10 minutes. The supernatant was centrifuged at 11,500×g for 20 minutes, a buffer I for the binding assay (50 mM Tris-hydrochloric acid buffer, pH 7.5) was added to the resultant precipitate, and the mixture was homogenized, and then it was centrifuged at 30,000×g for 10 minutes. The resulting precipitate was washed 3 times according to the same operation, suspended in the buffer I (1 g of wet-weight of tissue/10 ml) and used as a CBR membrane-preparation for the binding assay. The CBR membrane-preparation was stored at −80° C. until use, and on the day of the assay, it was thawed and suspended in the buffer for use. On the other hand, kidney of rat was homogenized in 20 volumes of ice-cold buffer II for the binding assay to wet-weight of the tissue (1:20, wet-weight/vol) (50 mM sodium phosphate-potassium phosphate buffer solution containing 100 mM sodium chloride, pH 7.4), and then filtrated through 4 layers of gauze, and the filtrate was centrifuged at 40,000×g for 20 minutes. The resulting precipitate was suspended in the buffer II (1 g of wet-weight of tissue/50 ml) and used as a MBR membrane-preparation for the binding assay.
As a labeled ligand and a non-labeled ligand, [^3H]flunitrazepam (final concentration: 1 nM) and diazepam (final concentration: 20 μM) were used respectively, for the CBR binding assay, and [^3H]4′-chlorodiazepam (Ro5-4864, chemical name: 7-chloro-1,3-dihydro-1-methyl-5-(4-chloro-phenyl)-2H-1,4-[…]) (final concentration: 0.5 nM) and diazepam (final concentration: 50 μM) were used respectively, for the MBR binding assay. The binding assay of CBR was carried out by incubating at 0° C. for 30 minutes, while that of MBR was at 0° C. for 150 minutes.
The receptor binding assay was carried out in the following procedure. The test compound which the concentration was known, a tritium labeled ligand, a receptor membrane-preparation and the buffer I or II for the binding assay were added to a 96-well microplate in the total volume was 0.2 ml, and when the receptor membrane-preparation was added, the reaction started. After the incubation, the labeled ligand binding to the receptor was filtrated through a filter plate (UNI FILTER-96GF/B, PerkinElmer, the U.S.) using a cell harvester (PerkinElmer, the U.S.) to stop the reaction. The filter was immediately washed 6 times with 0.3 ml of the ice-cold buffer [50 mM Tris-hydrochloric acid buffer (pH 7.7)]. After 30 μl of liquid scintillation cocktail (MICROSCINTI 20, PerkinElmer, the U.S.) was added to each well on the dried filter plate, the radioactivity was measured with a TopCount. The specific binding amount was obtained by subtracting the non-specific binding amount which was simultaneously measured in the presence of non-labeled ligand from the total binding amount. The concentration that the test compound could decrease the specific binding amount of the labeled ligand to 50% of the amount (IC50 value) was analyzed using nonlinear least-squares method.

In turn, `Cc1ccc(N2c3ccccc3C[C@H]2C(=O)N2CCC[C@H](C)C2)nn1` [Example 37] came in with a melting point of 192 to 194 °C. The half-inhibitory concentration (IC50) in series [1] was determined as 3.23 nM.
The like results for `Cc1ccc(N2c3ccccc3C[C@H]2C(=O)N2C[C@H](C)C[C@H](C)C2)nn1` [Example 38] were, in that order, 158 to 159 °C and 1.88 nM.
On the same counts, the results for `COc1ccc(N2c3ccccc3C[C@H]2C(=O)N2C[C@H](C)C[C@H](C)C2)nn1` [Example 39] are 173 to 175 °C and 1.71 nM.
On the same counts, the results for `C[C@@H]1C[C@H](C)CN(C(=O)[C@H]2Cc3ccccc3N2c2ncccn2)C1` [Example 42] are 159 to 160 °C and 14.3 nM.
`CC1CCCN(C(=O)[C@@H]2Cc3ccccc3N2c2cnccn2)C1` (stereo partly drawn) [Example 59] had a melting point of 177 to 179 °C. In series [1], this compound yielded an IC50 of 12.9 nM.
The like results for `C[C@H]1CCCN(C(=O)[C@@H]2Cc3ccccc3N2c2cnccn2)C1` [Example 60, (S)-2-[(S)-3-methylpiperidin-1-yl]carbonyl-1-(2-pyrazinyl)indoline] were, in that order, 174 to 175 °C and 1.54 nM.
`C[C@@H]1C[C@H](C)CN(C(=O)[C@@H]2Cc3ccccc3N2c2cnccn2)C1` [Example 61, (S)-2-(cis-3,5-dimethylpiperidin-1-yl)carbonyl-1-(2-pyrazinyl)indoline] came in with a melting point of 162 to 164 °C. For the same compound, in series [1], the half-inhibitory concentration (IC50) stood at 1.42 nM.
On the same counts, the results for `C[C@@H]1CCCN(C(=O)[C@@H]2Cc3ccccc3N2c2cccnn2)C1` [Example 62] are 169 to 172 °C and 12.2 nM.
On the same counts, the results for `C[C@H]1CCCN(C(=O)C2Cc3cc(F)ccc3N2c2ccc(Cl)nn2)C1` (stereo partly drawn) [Example 67] are 164 to 168 °C and 1.56 nM.
On the same counts, the results for `COc1cccc2c1CC(C(=O)N1CCC[C@H](C)C1)N2c1ccc(Cl)nn1` (stereo partly drawn) [Example 68] are 223 to 226 °C and 1.67 nM.
`COc1ccc2c(c1)CC(C(=O)N1CCC[C@H](C)C1)N2c1ccc(Cl)nn1` (stereo partly drawn) [Example 69] registered a melting point of 136 to 139 °C. Moreover, the IC50 in series [1] was 4.51 nM.
The like results for `COc1ccc2c(c1)N(c1ccc(Cl)nn1)C(C(=O)N1CCC[C@H](C)C1)C2` (stereo partly drawn) [Example 70] were, in that order, 184 to 186 °C and 2.45 nM.
On the same counts, the results for `C[C@H]1CCCN(C(=O)[C@@H]2Cc3ccccc3N2c2ccccn2)C1` [Example 72] are 186 to 189 °C and 0.659 nM.
On the same counts, the results for `COc1ccc(N2c3ccccc3C[C@H]2C(=O)N2CCC[C@H](C)C2)nn1` [Example 73, (S)-1-(6-Methoxypyridazin-3-yl)-2-[[(S)-3-methylpiperidin-1-yl]carbonyl]indoline] are 134 to 137 °C and 3.35 nM.
The compound `CC(C)Cn1nc(N2c3ccccc3C[C@H]2C(=O)N2CCC[C@H](C)C2)ccc1=O` [Example 75] displayed a melting point of 215 to 216 °C. This compound also registered an IC50 in series [1] of 2.77 nM.
The like results for `C[C@H]1CCCN(C(=O)[C@@H]2Cc3ccccc3N2c2ccc(=O)n(CC3CCCCC3)n2)C1` [Example 77] were, in that order, 215 to 217 °C and 3.15 nM.
The like results for `C[C@H]1CCCN(C(=O)[C@@H]2Cc3ccccc3N2c2ccc3nccn3n2)C1` [Example 78] were, in that order, 190 to 193 °C and 2.53 nM.
Compound `C[C@H]1CCCN(C(=O)[C@@H]2Cc3ccccc3N2c2ccc3nnc(Cl)n3n2)C1` [Example 79, (S)-1-(3-chloro-1,2,4-triazolo[4,3-b]pyridazin-6-yl)-2-[[(S)-3-methylpiperidin-1-yl]carbonyl]indoline] yielded a melting point of 268 to 269 °C. This compound came in with a 50% inhibitory concentration (IC50) in series [1] of 1.76 nM.
On the same counts, the results for `C[C@H]1CCCN(C(=O)[C@@H]2Cc3ccccc3N2c2cnn(C)c(=O)c2)C1` [Example 83] are 150 to 152 °C and 9.33 nM.
On the same counts, the results for `C[C@H]1CCCN(C(=O)[C@@H]2Cc3cc(Br)ccc3N2c2cccnn2)C1` [Example 90] are 161 to 163 °C and 6.54 nM.
On the same counts, the results for `C[C@H]1CCCN(C(=O)[C@@H]2Cc3cc(Cl)ccc3N2c2cccnn2)C1` [Example 91] are 175 to 177 °C and 2.31 nM.
As to `C[C@H]1CCCN(C(=O)[C@@H]2Cc3cc(Br)ccc3N2c2ccc(=O)n(C)n2)C1` [Example 93], the melting point is 241 to 242 °C. Moreover, the IC50 in series [1] was 5.81 nM.
The like results for `C[C@H]1CCCN(C(=O)[C@@H]2Cc3cc(Cl)ccc3N2c2ccc(=O)n(C)n2)C1` [Example 94] were, in that order, 243 to 244 °C and 16.7 nM.
On to `C=Cc1ccc2c(c1)C[C@@H](C(=O)N1CCC[C@H](C)C1)N2c1cccnn1` [Example 98], for which the melting point lay in the range of 103 to 106 °C. In addition, the IC50 in series [1] was determined as 44.3 nM.
The like results for `Cn1nc(N2c3ccccc3C[C@H]2C(=O)N2CCCCC2)ccc1=O` [Example 107, (S)-1-(1-methyl-6-oxo-1,6-dihydropyridazin-3-yl)-2-(1-piperidinylcarbonyl)indoline] were, in that order, 225 to 227 °C and 28.5 nM.
`C[C@@H]1CCCN(C(=O)[C@@H]2Cc3ccccc3N2c2ccc(=O)n(C)n2)C1` [Example 122] had a melting point of 191 to 193 °C. For the same compound, in series [1], the IC50 turned out to be 26.8 nM.
The like results for `C[C@H]1CCCN(C(=O)[C@@H]2Cc3ccccc3N2c2ccc(=O)n(Cc3ccccc3)n2)C1` [Example 123, (S)-1-(1-benzyl-6-oxo-1,6-dihydropyridazin-3-yl)-2-[[(S)-3-methylpiperidin-1-yl]carbonyl]indoline] were, in that order, 220 to 222 °C and 1.45 nM.
Take `C[C@H]1CCCN(C(=O)[C@@H]2Cc3ccccc3N2c2ccc(=O)n(CC(F)F)n2)C1` [Example 127]: the melting point is 173 to 175 °C. Moreover, in series [1], the concentration for half-maximal inhibition (IC50) came to 1.97 nM.
`C[C@H]1CCCN(C(=O)[C@@H]2Cc3ccccc3N2c2ccc(=O)n(CCF)n2)C1` [Example 128, (S)-1-[1-(2-fluoroethyl)-6-oxo-1,6-dihydropyridazin-3-yl]-2-[[(S)-3-methylpiperidin-1-yl]carbonyl]indoline] registered a melting point of 229 to 230 °C. In series [1], the concentration for half-maximal inhibition (IC50) amounted to 3.91 nM.
As to `CCCn1nc(N2c3ccccc3C[C@H]2C(=O)N2CCC[C@H](C)C2)ccc1=O` [Example 130], the melting point is 183 to 185 °C. The compound further returned a half-inhibitory concentration (IC50) in series [1] of 4.04 nM.

A word on the IC50: it is the concentration needed to halve the response being measured. As usually defined, the melting point is the temperature, or range, at which the solid turns liquid.

The record behind these values is patent US20080221114A1, “2-(Cyclic Aminocarbonyl) Indoline Derivative and Medicinal Composition Containing the Same” (priority 2005, published 2008).
